Source: ChEMBL document CHEMBL1128627, “Photoactivatable analogues of a Substance P non-peptidic antagonist, for probing the antagonist binding site of the NK1 receptor” (Bioorg Med Chem Lett, 1995)

Target: Substance-P receptor (Homo sapiens, UniProt P25103)
Experiment: In vitro binding affinity against human NK1 receptor expressed in CHO cells using [3H]-substance P as radioligand
Type: cell-based

Sequence of Substance-P receptor (P25103 whole entry): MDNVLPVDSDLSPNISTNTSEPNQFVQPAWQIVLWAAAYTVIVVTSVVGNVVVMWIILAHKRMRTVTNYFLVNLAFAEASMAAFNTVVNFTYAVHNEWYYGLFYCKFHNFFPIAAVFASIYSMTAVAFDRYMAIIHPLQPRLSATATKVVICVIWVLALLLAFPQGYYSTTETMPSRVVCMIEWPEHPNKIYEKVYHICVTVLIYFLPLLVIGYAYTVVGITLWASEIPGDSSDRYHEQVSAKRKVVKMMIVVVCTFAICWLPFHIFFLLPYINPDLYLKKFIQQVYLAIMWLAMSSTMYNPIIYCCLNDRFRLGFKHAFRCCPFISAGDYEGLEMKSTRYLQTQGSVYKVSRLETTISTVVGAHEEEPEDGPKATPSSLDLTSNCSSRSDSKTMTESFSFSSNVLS

| Ki | Structure (SMILES) |
| --- | --- |
| 0.398 nM | COc1ccc(C(=O)c2ccccc2)cc1CN[C@H]1CCCN[C@H]1c1ccccc1 |
| 0.794 nM | COc1ccc(C2(C(F)(F)F)N=N2)cc1CN[C@H]1CCCN[C@H]1c1ccccc1 |
